Reference: US5563125A, “5'-deoxy-5'-(substituted)alkylthioribose compounds and their pharmaceutical compositions” (priority 1992, dated 1996)

Assays:
[1] = tested on: T. b. brucei procyclic trypanosomes (Lab 110 EATRO strain); experiment: In vitro antitrypanosomal activity, procyclic trypanosomes in T2 medium; format: cell-based, Trypanosoma brucei brucei; settings: Trypanosoma brucei, 3-5 days
Protocol: The antitrypanosomal effects of HETA and other nucleosides were examined in the Lab 110 EATRO strain of T. b. brucei in culture.
Cells were cultured as described in Bacchi et al. Exp. Parasitol. 68, 392, 1989. Cells were then grown in the presence of the compounds for 3-5 days. Drugs were filtered, sterilized and added aseptically. Control cells achieved a maximum density of 1.5-3.5×10^7 /ml. Hemocytometer counts were made daily and the results were expressed as a percent of control growth. IC50 plots were obtained by graphing log (drug) vs. percent growth inhibition.
Trypanocidal Activity of MTA and MTR Analogs
against T. b. brucei procyclic trypanosomes in T2 medium.

[2] = molecular target: T1, T. b. brucei MTA phosphorylase (Trypanosoma brucei, UniProt Q57XS4); experiment: T. b. brucei MTA phosphorylase substrate assay; format: biochemical; settings: relative to MTA
T1 construct: MTA or analogs as substrates
T1 sequence (Q57XS4 entry or part of it): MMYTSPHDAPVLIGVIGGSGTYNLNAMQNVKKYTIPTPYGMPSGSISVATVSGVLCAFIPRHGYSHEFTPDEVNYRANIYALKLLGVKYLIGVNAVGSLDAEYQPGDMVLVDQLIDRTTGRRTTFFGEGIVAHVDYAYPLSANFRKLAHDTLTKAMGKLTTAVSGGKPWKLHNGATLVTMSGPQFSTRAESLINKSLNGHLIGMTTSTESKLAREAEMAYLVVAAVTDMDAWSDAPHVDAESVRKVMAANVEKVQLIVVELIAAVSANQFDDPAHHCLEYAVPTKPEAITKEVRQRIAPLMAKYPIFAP
Protocol: ^a MTA phosphorylase was assayed according to Ghoda et al., using 200
μM MTA (saturating) or analogs as substrates. Specific activities of
the dialyzed enzyme preparations were with 50 mM PO4, 104.97 n
moles/mg protein/h; without PO4, 28.27 n moles/mg protein/h. Results
are expressed as percent activity compared to as substrate with and
without PO4, respectively.

[3] = tested on: L1210 cells (MTA phosphorylase-deficient); experiment: Growth inhibition of L1210 cells; format: cell-based, mouse; settings: Mus musculus, L1210, 48 h
Protocol: (§1) L1210, L5178Y and MOLT-4 cell lines were grown in RPMI 1640 and 10% Nu Serum (Collaborative Research Inc., Lexington, Mass.) and CCRF-CEM cells were grown in 10% Horse Serum (Gibco Laboratories, Grand Island, N.Y.) and maintained as previously described for suspension cultures by Pera et al. in Cancer Res. 46, 1148, 1986. Cell cultures (0.3×10^5 cells/ml) were treated with each compound at 0.1 to 1000 μM to determine the concentration that inhibited growth by 50% (IC50) at 48 hr for the L1210 and L5178Y cells and at 96 hr for the CCRF-CEM and MOLT-4 cells. The incubation times allowed approximately 4 cell doublings in each cell line. All compounds were freshly prepared prior to treatment by dissolving in DMSO and diluting in serum-free media. Cells were counted by electron particle counting (Model XF' Coulter Counter; Coulter Electronics, Hialeah, Fla.).
(§2) For each compound, the concentrations required to inhibit cell growth by 50% (IC50 values) are shown in Table 7 for two murine leukemic cell lines, L1210 and L5178Y [MTA phosphorylase-deficient and MTA phosphorylase-containing, respectively] and two human leukemic cell lines, CCRF-CEM and MOLT-4 [MTA phosphorylase-deficient and MTA phosphorylase-containing, respectively]. ETA, MFETA, HETA and PTA had lower IC50 values in the L5178Y cells than in the L1210 cells. […] This differential is consistent with the possibility that, in L5178Y cells, MFETA is cleaved by MTA phosphorylase to the growth inhibitory metabolite, 5-monofluoroethylthioribose-1-phosphate (MFETR-1-P).

[4] = tested on: CCRF-CEM cells (MTA phosphorylase-deficient); experiment: Growth inhibition of CCRF-CEM cells; format: cell-based, human; settings: Homo sapiens, 96 h
Protocol: as §1, §2

[5] = tested on: MOLT-4 cells (MTA phosphorylase-containing); experiment: Growth inhibition of MOLT-4 cells; format: cell-based, human; settings: Homo sapiens, MOLT-4, 96 h
Protocol: as §1, §2

L1210 leukemic cells = experiment: Antitumor effects in L1210 leukemic mice; format: in vivo, DBA/2N mice
Protocol: The antitumor effects of MFETA were evaluated in DBA/2N mice (Charles River) who received i.p. transplants of 10^6 L1210 leukemic cells or 10^6 L5178Y leukemic cells on day 0 according to protocols described previously by Bernacki et al., Cancer Res. 47, 799, 1987. The increase in life span (% ILS) of treated animals relative to untreated, tumor-bearing animals was used as the measure of their therapeutic effectiveness at specified dose regimens.
^a MFETA was administered i.p. on days 1, 2, 3, 4, 5 following i.p.
implantation of 10^6 tumor cells on day 0.
^b % ILS is the percentage of increase in life span.

[6] = tested on: A121 (human ovarian carcinoma); experiment: In vitro evaluation, A121; format: cell-based; settings: A121, medium B, 72 hours, solvent DMSO
Protocol: (§3) In vitro evaluations of the compound 5'-deoxy-5'-(monofluoroethylthio) adenosine (MFETA) were performed using the materials and conditions described in Tables 9 and 10.
(a) Basal medium + RPMI 1640 + 20 mM HEPES;
B--5% NuSerum IV + 5% FCS,
*Incubation or exposure time is determined by the doubling time of the
cell line such that each is exposed to the compound for 3-4 cell

HO (human melanoma) = experiment: In vitro evaluation, HO; format: cell-based; settings: medium B, 72 hours
Protocol: as §3
(§4) ^(a) Basal medium = RPMI 1640 + 20 mM HEPES + 2 mM Lglutamine
(§5) B = 5% FCS + 5% NuSerum IV

MALME (human melanoma) = experiment: In vitro evaluation, MALME; format: cell-based; settings: medium B, 72 hours
Protocol: as §3, §4, §5

SH-1 (human melanoma) = experiment: In vitro evaluation, SH-1; format: cell-based; settings: SH-1, medium B, 72 hours
Protocol: as §3, §4, §5

STO-1 (human melanoma) = experiment: In vitro evaluation, STO-1; format: cell-based; settings: STO-1, medium B, 72 hours
Protocol: as §3, §4, §5

SMILES: Nc1ncnc2c1ncn2[C@@H]1O[C@H](CSCCF)[C@@H](O)[C@H]1O [MFETA, 5'-deoxy-5'-(monofluoroethylthio)adenosine]
- IC50 [1]: 5 µM
- Percent Control Activity ([2]; +50 mM PO4, 200 μM substrate): 75.3%
- Percent Control Activity ([2]; No PO4, 200 μM substrate): 109.1%
- IC50 [3]: 150 ± 50 µM
- IC50 [4]: 75 ± 20 µM
- IC50 [5]: 10 ± 3 µM
- % ILS (percentage of increase in life span) (L1210 leukemic cells; L1210, 10 mg/kg i.p. days 1-5): 14%
- Mean Death Weight (L1210 leukemic cells; L1210, 10 mg/kg i.p. days 1-5): 23.7 g
- Survival Mean ± SD (L1210 leukemic cells; L1210, 10 mg/kg i.p. days 1-5): 7.2 ± 0.5 days
- Survival Median (L1210 leukemic cells; L1210, 10 mg/kg i.p. days 1-5): 8 days
- Survival Range (L1210 leukemic cells; L1210, 10 mg/kg i.p. days 1-5): 6 to 8 days
- % ILS (percentage of increase in life span) (L1210 leukemic cells; L1210, 50 mg/kg i.p. days 1-5): 14%
- Mean Death Weight (L1210 leukemic cells; L1210, 50 mg/kg i.p. days 1-5): 24.5 g
- Survival Mean ± SD (L1210 leukemic cells; L1210, 50 mg/kg i.p. days 1-5): 7.8 ± 0.2 days
- Survival Median (L1210 leukemic cells; L1210, 50 mg/kg i.p. days 1-5): 8 days
- Survival Range (L1210 leukemic cells; L1210, 50 mg/kg i.p. days 1-5): 7 to 8 days
- % ILS (percentage of increase in life span) (L1210 leukemic cells; L1210, 100 mg/kg i.p. days 1-5): 14%
- Mean Death Weight (L1210 leukemic cells; L1210, 100 mg/kg i.p. days 1-5): 22.8 g
- Survival Mean ± SD (L1210 leukemic cells; L1210, 100 mg/kg i.p. days 1-5): 7.9 ± 0.2 days
- Survival Median (L1210 leukemic cells; L1210, 100 mg/kg i.p. days 1-5): 8 days
- Survival Range (L1210 leukemic cells; L1210, 100 mg/kg i.p. days 1-5): 7 to 9 days
- % ILS (percentage of increase in life span) (L1210 leukemic cells; L1210, 200 mg/kg i.p. days 1-5): 28%
- Mean Death Weight (L1210 leukemic cells; L1210, 200 mg/kg i.p. days 1-5): 18.4 g
- Survival Mean ± SD (L1210 leukemic cells; L1210, 200 mg/kg i.p. days 1-5): 8.8 ± 0.8 days
- Survival Median (L1210 leukemic cells; L1210, 200 mg/kg i.p. days 1-5): 9 days
- Survival Range (L1210 leukemic cells; L1210, 200 mg/kg i.p. days 1-5): 6 to 11 days
- % ILS (percentage of increase in life span) (L1210 leukemic cells; L1210, 300 mg/kg i.p. days 1-5): -72%
- Mean Death Weight (L1210 leukemic cells; L1210, 300 mg/kg i.p. days 1-5): 18.8 g
- Survival Mean ± SD (L1210 leukemic cells; L1210, 300 mg/kg i.p. days 1-5): 2.2 ± 0.2 days
- Survival Median (L1210 leukemic cells; L1210, 300 mg/kg i.p. days 1-5): 2 days
- Survival Range (L1210 leukemic cells; L1210, 300 mg/kg i.p. days 1-5): 2 to 3 days
- IC50 [6]: 269 µM
- IC50 (HO (human melanoma)): 333 ± 5.9 µM
- IC50 (MALME (human melanoma)): 364 ± 13 µM
- IC50 (SH-1 (human melanoma)): 319 ± 10 µM
- IC50 (STO-1 (human melanoma)): 296 ± 9.9 µM
